Data on three compounds can be found in patent US11738002B2, “Methods of treating neurological and psychiatric disorders” (Sunovion Pharmaceuticals Inc., priority 2020, dated 2023).

In data set [1] the test system is Female Sprague Dawley Rats. Nature of the data set: withdrawal-induced physical dependence study. The protocol:
Animals were not dosed during the withdrawal phase. Dosing in the morning was staggered such that every animal was observed individually on each day.
Body weights were recorded prior to each dosing session on Day −6 to Day 46 and in the morning during the withdrawal phase. Only body weight recorded prior to the morning dosing session was used for statistical analysis. Food and water intake were measured once daily in the morning from Day −6 to Day 46 just prior to dosing, and in the morning of the withdrawal phase. Body temperatures were measured once daily using a rectal probe from Day −6 to Day 46 just prior to dosing, and, immediately prior to body weight measurement during the withdrawal. A detailed observation checklist was used to record any physical or behavioral signs of pharmacological effect during dosing and of drug dependence in the withdrawal phase. Rats were observed on a workbench in their open topped home cages (in the holding room where they were kept throughout the study) for a 2 min period 1 hr after the morning dose during the baseline and dosing phases and twice daily on Day 46 and during the withdrawal phase. […] For all other endpoints, withdrawal begins on Day 47.

Data set [2] deals with female Lister hooded rats. The settings on record: rat, in vivo. From the text: (§1) Experimentally naïve rats were housed individually in plastic cages containing bedding. Housing rooms were maintained under a 12/12-hour light/dark cycle at controlled ambient temperature and relative humidity. Animals were allowed to acclimate to laboratory conditions before the beginning of experiments and had free access to water. Access to food was restricted to facilitate training and maintenance of operant behavior with the exception of training of female rats in the MDMA drug discrimination study. Experiments were conducted in operant chambers (MED Associates, Inc., St. Albans, Vt., U.S.A.) located within sound-attenuating, ventilated cubicles. Each chamber was equipped with a stimulus light, lever(s) located near a food receptacle which was connected to a food pellet dispenser. Chambers used for reinstatement studies were also equipped with a Sonalert® tone generator.
The training substance was administered 15 minutes before the session. […] The percentage of total responses on the training drug-appropriate lever and response rates were calculated for each rat.

The test system of data set [3] is male SD rats trained to self-administer heroin. Nature of the data set: self-administration (heroin substitution) test. To be noted: Sprague-Dawley, rat, in vivo.
Excerpt: as §1

Molecules are shown by their SMILES.

With `CN1C(=O)CN=C(c2ccccc2)c2cc(Cl)ccc21` [diazepam], in data set [1] (10/15/20 mg/kg p.o. b.i.d. on Days 1-5/6-18/19-46), the “weight of the rats vs vehicle at the end of the dosing phase” value was 5.4%. The “withdrawal signs on cessation of dosing” value in data set [1] (10/15/20 mg/kg p.o. b.i.d., 46 days) is “Physical dependence was demonstrated”. As for `O=C1CC2(CCCC2)CC(=O)N1CCCCN1CCN(c2ncccn2)CC1` [buspirone], in data set [2], the “generalization to MDMA” value is given as 37.2±20.4% and the “weak partial generalization to the cue elicited by MDMA” value was below 50%. For the compound `CC(=O)Oc1ccc2c3c1O[C@H]1[C@@H](OC(C)=O)C=C[C@H]4[C@@H](C2)N(C)CC[C@@]341` [heroin], the “mean number of infusions, heroin acquisition session” value in data set [3] stood at 19.0±0.4.
